# Assays:
# Format in all cases: cell-based, mouse
# mHypoE-38 cell line = test: Gene expression by qRT-PCR in mHypoE-38 hypothalamic cell line; conditions: 100 μM BAP, 16 hr
# Experimental: Hypothalamic neurons from embryonic and adult mice were previously immortalized to generate the clonal cell lines mHypoE-46, mHypoE-44, mHypoE-41, mHypoE-38, mHypoA-59, a FAC-sorted POMC/GFP mouse-derived cell line, mHypoA-POMC/GFP-2, and a mixed culture mHypoA-Bmal1-WT/F cell line (6, 13, 14). The mHypoE-46, mHypoE-44, and mHypoA-Bmal1-WT/F lines were cultured in DMEM containing 1000 mg/L glucose supplemented with 5% FBS and 1% pen/strep. The mHypoE-41, mHypoE-38, and mHypoA-59 cell lines were cultured in DMEM containing 4500 mg/L glucose supplemented with 2% FBS and 1% pen/strep. The mHypoA-POMC/GFP-2 line was cultured in DMEM containing 1000 mg/L glucose supplemented with 2% FBS and 1% pen/strep. […] Neuropeptide gene expression levels were determined by qRT-PCR.
# For cell culture experiments, total RNA was isolated using PureLink RNA isolation kit (Thermofisher Scientific, Burlington, ON, Canada) according to the manufacturer's instruction with on column DNase step (PureLink DNAse kit) or DNase I treatment to remove genomic DNA. […] RNA quality and quantity were measured using Nanodrop 2000 and 500-1000 ng of complimentary DNA (cDNA) was synthesized with High Capacity cDNA Reverse Transcription kit (Applied biosystems, Thermofisher Scientific). […] Data was analyzed using […] and normalized to reference gene, either 60S ribosomal protein L7 (Rpl7) or Histone 3a (His).
# mHypoE-46 cell line = test: Gene expression by qRT-PCR in mHypoE-46 hypothalamic cell line; design: insulin receptor subunit beta (Insrb) expression by qRT-PCR: dose or concentration left out as unconfirmed; conditions: for effect of PKA inhibition on BAP effect on Npy expression: n=2
# Experimental: Hypothalamic neurons from embryonic and adult mice were previously immortalized to generate the clonal cell lines mHypoE-46, mHypoE-44, mHypoE-41, mHypoE-38, mHypoA-59, a FAC-sorted POMC/GFP mouse-derived cell line, mHypoA-POMC/GFP-2, and a mixed culture mHypoA-Bmal1-WT/F cell line (6, 13, 14). The mHypoE-46, mHypoE-44, and mHypoA-Bmal1-WT/F lines were cultured in DMEM containing 1000 mg/L glucose supplemented with 5% FBS and 1% pen/strep. The mHypoE-41, mHypoE-38, and mHypoA-59 cell lines were cultured in DMEM containing 4500 mg/L glucose supplemented with 2% FBS and 1% pen/strep. The mHypoA-POMC/GFP-2 line was cultured in DMEM containing 1000 mg/L glucose supplemented with 2% FBS and 1% pen/strep. All cells were maintained in 5% CO2 at 37° C. BAP was initially dissolved in DMSO solvent (vehicle control) to achieve 1000x the intended dose. The BAP solution was then diluted 1:1000 with the growth media used for the cell line. For co-treatment experiments, the vehicle control for ATP, UDP, and PKI was water, and for the H89 PKA inhibitor was DMSO. Neuropeptide gene expression levels were determined by qRT-PCR.
# For cell culture experiments, total RNA was isolated using PureLink RNA isolation kit (Thermofisher Scientific, Burlington, ON, Canada) according to the manufacturer's instruction with on column DNase step (PureLink DNAse kit) or DNase I treatment to remove genomic DNA. For mouse experiments, total RNA was isolated using mirVana PARIS RNA and native protein isolation kit (Thermofisher Scientific). RNA quality and quantity were measured using Nanodrop 2000 and 500-1000 ng of complimentary DNA (cDNA) was synthesized with High Capacity cDNA Reverse Transcription kit (Applied biosystems, Thermofisher Scientific). Quantitative reverse transcription polymerase chain reaction (RT-qPCR) was performed with 12.5 ng of cDNA amplified with Platinum SYBR green qPCR SuperMix-UDG with ROX on an Applied Biosystems Prism 7900HT or PowerTrack Green Master Mix on an Applied Biosystems QuantStudio 5 and gene specific primers as per manufacturer's instructions (Table 1). Data was analyzed using […] and normalized to reference gene, either 60S ribosomal protein L7 (Rpl7) or Histone 3a (His).
# AMPK = AMPK phosphorylation by Western blot in mHypoE-46; conditions: 100 μM BAP, 15 min, mHypoE-46
# Experimental: mHypoE-46 cells were serum starved in 5.5 mM glucose (LG) DMEM for 1 hour prior to treatment with vehicle (0.1% DMSO), 100 µM BAP or H20, […] 5-Aminoimidazole-4-carboxamide ribonucleotide (AICAR) or 0 mM glucose DMEM. Protein was harvested using 1× cell lysis buffer (Cell Signaling Technologies, Inc, CST) containing protease and phosphatase inhibitors. A total of 30 μg protein was separated on a 12% SDS-polyacrylamide gels and transferred onto PVDF membranes. Membranes were blocked in 5% milk dissolved in Tris-buffered saline with Tween 20 (TBS-T) for 1 h and incubated with primary antibody overnight at 4° C. phospho-AMPKα (Thr172; cat. 2532S, CST), and total AMPKα (cat. 2535S, CST); phospho-p70-S6K (Thr389; cat. 9205S, CST) and total p70-S6K (cat. 9202S, CST); insulin receptor ß (cat. 3025S, CST); phospho-AKT (Ser473; cat. 9271S, CST) and total AKT (cat. 9272S, CST); phospho-ERK1/2 (Thr202/Tyr204; cat. 9101, CST) and total ERK (cat. 4695, CST) were diluted 1:1000 in 5% milk in TBS-T. Membranes were washed and incubated with secondary HRP-linked antirabbit antibody (1:7500 in 5% milk in TBS-T, CST) for 1 h, washed, and imaged using the Signal Fire ECL Reagent (CST) on the iBright 1500 Imaging System (Thermofisher). Protein density was quantified using ImageJ or the iBright Imaging System.
# Akt (PKB) = test: Akt (Ser473) phosphorylation by Western blot in mHypoE-46 after insulin re-exposure
# Experimental: (§1) mHypoE-46 cells were serum starved in 5.5 mM glucose (LG) DMEM for 1 hour prior to treatment with vehicle (0.1% DMSO), 100 µM BAP or H20, […] 5-Aminoimidazole-4-carboxamide ribonucleotide (AICAR) or 0 mM glucose DMEM. Protein was harvested using 1× cell lysis buffer (Cell Signaling Technologies, Inc, CST) containing protease and phosphatase inhibitors. A total of 30 μg protein was separated on a 12% SDS-polyacrylamide gels and transferred onto PVDF membranes. […] Protein density was quantified using ImageJ or the iBright Imaging System.
# In order to determine if insulin signaling and sensitivity may be affected by BAP, we assessed the activity and expression of the key signal transduction cascade activated by insulin, the PI3K/Akt pathway. mHypoE-46 neurons were co-treated with 100 μM insulin or vehicle control and 100 μM BAP and vehicle control for 24 hours. […] The phosphorylation level of Akt (PKB), the downstream kinase in the PI3K/Akt signal transduction pathway was assessed. […]
# ERK1/2 = ERK1/2 (Thr202/Tyr204) phosphorylation by Western blot in mHypoE-46; conditions: 100 μM BAP, 5 minutes
# Experimental: as §1
# We also assessed the activity of another key signal transduction cascade, the MAPK ERK1/2 pathway. mHypoE-46 neurons were treated with 100 μM BAP and vehicle control for 5 minutes followed by protein isolation and Western blot analysis. The phosphorylation level of ERK1/2, one of the MAPK family members, was assessed.
# [1] = 100 μM BAP, validation of RNAseq (FIG. 42A 4 hr, 42B 16 hr)
smiles,measurement,setting,value
"c1ccc(CNc2ncnc3nc[nH]c23)cc1 [BAP, N6-benzylaminopurine]",Agrp mRNA expression,mHypoE-38 cell line,increased
same,Npy mRNA expression,mHypoE-38 cell line,no effect
same,effect of PKA inhibition on BAP effect on Npy expression,"mHypoE-46 cell line; 100 μM BAP + 1 μM H89, 16 hr",unable to block the effects of BAP on Npy expression
same,effect of PKA inhibition on BAP effect on Npy expression,"mHypoE-46 cell line; 100 μM BAP + 10 μM PKI, 16 hr",unable to block the effects of BAP on Npy expression
same,Npy expression under co-treatment with palmitate,"mHypoE-46 cell line; 100 μM BAP + 50 μM palmitate, 16 hr",rescues the palmitate-mediated increase in Npy expression
same,Npy mRNA under co-treatment with ATP,"mHypoE-46 cell line; 100 μM BAP + 100 μM ATP, 16 hr",overcome this induction and supress Npy mRNA levels
same,Npy mRNA under co-treatment with UDP,"mHypoE-46 cell line; 100 μM BAP + 100 μM UDP, 16 hr",still able to supress the gene
same,Npy mRNA under co-treatment with UTP,"mHypoE-46 cell line; 100 μM BAP + 100 μM UTP, 16 hr, n=2 preliminary",still able to supress the gene
same,PI3K subunit (Pik3r1) gene expression,"mHypoE-46 cell line; 100 μM BAP, 4 and 16 h",significantly increased
same,Nadpk1 expression level,"mHypoE-46 cell line; 100 μM BAP, 16 h",significantly decreased
same,Nadpk2 expression level,"mHypoE-46 cell line; 100 μM BAP, 16 h",not changed
same,Agrp mRNA expression,"mHypoE-46 cell line; 100 μM BAP, 16 hr",increased
same,Npy mRNA expression,"mHypoE-46 cell line; 100 μM BAP, 16 hr",supressed
same,4e-BP1 (Eif4ebp1) gene expression,mHypoE-46 cell line; [1],increased
same,ULK1 (Ulk1) gene expression,mHypoE-46 cell line; [1],increased
same,sestrin2 (Sesn2) gene expression,mHypoE-46 cell line; [1],increased
same,tuberous sclerosis complex 2 (Tsc2) gene expression,mHypoE-46 cell line; [1],increased
same,"Npy mRNA expression, time course","mHypoE-46 cell line; 100 μM BAP, all time points tested: 2, 4, 8, 16, and 24 hr",significantly downregulate
same,insulin receptor subunit beta (Insrb) expression by qRT-PCR,"mHypoE-46 cell line; BAP, 16 h",increased
same,BAP dose at which magnitude of Npy downregulation plateaus,"mHypoE-46 cell line; dose curve, 16 hr",250 µM
same,lowest BAP concentration significantly decreasing Npy mRNA expression,"mHypoE-46 cell line; dose curve, 16 hr",50 µM
same,AMPK phosphorylation or activation vs vehicle,AMPK,significant decrease
same,Akt phosphorylation at Ser473 upon 15 minutes of insulin exposure,"Akt (PKB); 100 μM BAP 24 hours, neurons pre-treated with vehicle alone, re-exposed to 100 nM insulin",significantly increased
same,induction of Akt phosphorylation by BAP under insulin-induced cellular insulin resistance,"Akt (PKB); 100 μM BAP, neurons pre-treated with 100 μM insulin for 24 hours",not observed
same,ERK1/2 phosphorylation at Thr202/Tyr204,ERK1/2,significantly decreased

# Source: US20260034135A1, “USE OF N6-BENZYLAMINOPURINE AS AN APPETITE SUPPRESSANT” (THE GOVERNING COUNCIL OF THE UNIVERSITY OF TORONTO, priority 2022, published 2026)
